Results reported in patent publication US6750228B1, “Aromatic sulfone hydroxamic acid metalloprotease inhibitor” (priority 1997, dated 2004).
pIC50: −log10 of the molar value. Like-named read-outs stand apart in the source and are kept apart here.

Key:
Test in all cases: biochemical
[1] = target: T1, MMP-13 (Homo sapiens, UniProt P45452); conditions: for pIC50: read-out: MMP-13 IC50; for IC50: MMP-13 IC50 (nM)
T1 construct: made in house; host or cells: baculovirus / insect cells
Summary of the method: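 APMA- or trypsin-activated enzymes were preincubated with inhibitor for 5 min at room temperature, then the fluorogenic substrate MCA-Pro-Leu-Gly-Leu-Dpa-Ala-Arg-NH2 was added to a final 4 μM.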

[2] = target: T2, MMP-2 (Homo sapiens, UniProt P08253); conditions: for pIC50: read-out: MMP-2 IC50
T2 construct: made in house; provided by Dr. Gregory Goldberg, Washington University
T2 sequence (P08253 110-660): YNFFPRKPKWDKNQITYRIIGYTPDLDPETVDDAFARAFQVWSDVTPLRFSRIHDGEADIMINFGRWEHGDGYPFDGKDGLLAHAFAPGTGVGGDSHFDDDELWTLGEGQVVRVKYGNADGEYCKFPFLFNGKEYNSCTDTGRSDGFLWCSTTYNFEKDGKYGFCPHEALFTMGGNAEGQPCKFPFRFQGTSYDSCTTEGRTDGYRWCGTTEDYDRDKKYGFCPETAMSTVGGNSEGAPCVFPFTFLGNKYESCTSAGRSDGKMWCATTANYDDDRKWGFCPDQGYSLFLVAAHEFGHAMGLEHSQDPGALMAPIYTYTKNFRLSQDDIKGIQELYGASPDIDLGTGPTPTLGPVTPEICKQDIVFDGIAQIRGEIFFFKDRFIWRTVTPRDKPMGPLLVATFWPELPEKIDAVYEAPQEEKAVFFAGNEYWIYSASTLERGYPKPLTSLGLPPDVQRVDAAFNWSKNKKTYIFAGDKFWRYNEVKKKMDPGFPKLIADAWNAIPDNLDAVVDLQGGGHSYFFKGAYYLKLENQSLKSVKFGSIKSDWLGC
Summary of the method: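 Assay buffer 100 mM Tris-HCl, 100 mM NaCl, 10 mM CaCl2, pH 7.5. Activated MMP + inhibitor, 5 min RT; then methoxycoumarin peptide substrate, 4 μM final. Readout fluorescence; IC50 calculated.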

[3] = target: T3, MMP-1 (Homo sapiens, UniProt P03956); conditions: read-out: MMP-1 IC50
T3 construct: made in house; host or cells: transfected HT-1080 cells (provided by Dr. Harold Welgus, Washington University)
T3 sequence (P03956 100-469): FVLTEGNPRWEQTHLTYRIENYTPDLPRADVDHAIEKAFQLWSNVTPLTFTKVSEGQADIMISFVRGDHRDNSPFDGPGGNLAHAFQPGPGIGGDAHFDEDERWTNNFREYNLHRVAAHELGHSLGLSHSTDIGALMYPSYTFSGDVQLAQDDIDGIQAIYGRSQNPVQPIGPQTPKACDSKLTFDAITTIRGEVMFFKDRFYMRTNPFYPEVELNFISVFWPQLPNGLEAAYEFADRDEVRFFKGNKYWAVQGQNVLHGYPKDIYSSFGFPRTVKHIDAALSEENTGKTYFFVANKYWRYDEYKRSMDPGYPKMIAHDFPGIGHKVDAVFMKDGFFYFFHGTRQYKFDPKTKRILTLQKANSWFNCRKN
Summary of the method: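 APMA- or trypsin-activated human MMPs (MMP-1 from transfected HT-1080 cells, MMP-2 from transfected cells) preincubated with inhibitor in 1% DMSO at room temperature, then 4 μM MCA-Pro-Leu-Gly-Leu-Dpa-Ala-Arg-NH2 added in Tris/NaCl/CaCl2 buffer pH 7.5. IC50 from fluorescence reduction versus inhibitor concentration.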

[4] = recombinant human MMP-13, MCA peptide substrate 4 μM, pH 7.5, room temperature
[5] = recombinant human MMP-2, MCA peptide substrate 4 μM, pH 7.5, room temperature
[6] = recombinant human MMP-1, MCA peptide substrate 4 μM, pH 7.5, room temperature

Row | pIC50 [1, 4] | pIC50 [2, 5] | pIC50 [3, 6] | Compound | other results
1 | 6.43 | 5.92 | < 5.00 | COCCN1CCN(c2ccc(S(=O)(=O)C3(C(=O)NO)CCOCC3)cc2)CC1 [Example 645] | –
2 | 7.86 | 6.59 | < 5.00 | C=CCOC1CCN(c2ccc(S(=O)(=O)C3(C(=O)NO)CCOCC3)cc2)CC1 [Example 635] | –
3 | 7.10 | 5.57 | < 5.00 | CCCNC(=O)C1CCN(c2ccc(S(=O)(=O)C3(C(=O)NO)CCOCC3)cc2)CC1 [Example 57] | –
4 | 5.57 | 5.46 | < 5.00 | CN(CCc1ccccc1)C1CCN(c2ccc(S(=O)(=O)C3(C(=O)NO)CCOCC3)cc2)CC1 [Example 584] | –
5 | 7.43 | 6.15 | < 5.00 | O=C(NO)C1(S(=O)(=O)c2ccc(N3CCC(OCc4cccnc4)CC3)cc2)CCOCC1 [Example 580] | –
6 | 8.62 | 6.70 | < 5.00 | O=C(NO)C1(S(=O)(=O)c2ccc(N3CCC(OCc4ccc(Cl)cc4)CC3)cc2)CCOCC1 [Example 170] | –
7 | 8.52 | 7.22 | < 5.00 | C=C(C)CC(=O)C1CCN(c2ccc(S(=O)(=O)C3(C(=O)NO)CCOCC3)cc2)CC1 [Example 759] | –
8 | 7.74 | 6.49 | < 5.00 | COc1cc(COC2CCN(c3ccc(S(=O)(=O)C4(C(=O)NO)CCOCC4)cc3)CC2)cc(OC)c1 [Example 178] | –
9 | 7.80 | 7.24 | < 5.00 | CN(C)Cc1ccc(COC2CCN(c3ccc(S(=O)(=O)C4(C(=O)NO)CCOCC4)cc3)CC2)cc1 [Example 566] | –
10 | 8.17 | 6.48 | 5.47 | O=C(NO)C1(S(=O)(=O)c2ccc(N3CCC(OCc4cccc(OC(F)(F)F)c4)CC3)cc2)CCOCC1 [Example 173] | –
11 | 8.15 | 7.54 | < 5.00 | CC(C)CC(=O)C1CCN(c2ccc(S(=O)(=O)C3(C(=O)NO)CCOCC3)cc2)CC1 [Example 756] | –
12 | 8.14 | 7.10 | < 5.00 | N#Cc1ccccc1COC1CCN(c2ccc(S(=O)(=O)C3(C(=O)NO)CCOCC3)cc2)CC1 [Example 559] | –
13 | 6.43 | 5.15 | < 5.00 | CN(C)CCN(C)C(=O)C1CCN(c2ccc(S(=O)(=O)C3(C(=O)NO)CCOCC3)cc2)CC1 [Example 51] | –
14 | 8.30 | 7.19 | < 5.00 | O=C(NO)C1(S(=O)(=O)c2ccc(N3CCC(Oc4ccccc4F)CC3)cc2)CCOCC1 [Example 547] | –
15 | 8.42 | 7.66 | < 5.00 | Cc1ccc(OC2CCN(c3ccc(S(=O)(=O)C4(C(=O)NO)CCOCC4)cc3)CC2)cc1C [Example 637] | –

The remaining lines, values behind:

Row | Compound | pIC50 [1, 4] | pIC50 [2, 5] | pIC50 [3, 6] | other results
16 | COCCNCCCCC(=O)N1CCC(C(=O)NO)(S(=O)(=O)c2ccc(Oc3ccc(C(F)(F)F)cc3)cc2)CC1 [Example 347] | 8.52 | 9.15 | < 5.00 | –
17 | CC(C)N1CCC(C(=O)NO)(S(=O)(=O)c2ccc(OC(F)(F)F)cc2)CC1 [Example 439] | 5.97 | 5.80 | < 5.00 | –
18 | CCOc1ccccc1N1CCN(C(=O)C2CCN(c3ccc(S(=O)(=O)C4(C(=O)NO)CCOCC4)cc3)CC2)CC1 [Example 24] | – | – | – | pIC50 [1]: 7.63; pIC50 [2]: 5.35; pIC50 [3]: < 5.00
19 | O=C(CN1CCNCC1)N1CCC(C(=O)NO)(S(=O)(=O)c2ccc(Oc3ccc(C(F)(F)F)cc3)cc2)CC1 [Example 328] | 9.46 | 9.40 | < 5.00 | –
20 | O=C(c1ccco1)N1CCC(C(=O)NO)(S(=O)(=O)c2ccc(N3CCC(OCc4ccc(F)cc4)CC3)cc2)CC1 [Example 424] | 8.26 | 7.10 | < 5.00 | –
21 | O=C(Nc1ccccc1Cl)N1CCC(C(=O)NO)(S(=O)(=O)c2ccc(Oc3ccc(OC(F)(F)F)cc3)cc2)CC1 [Example 365] | 9.52 | 10.00 | < 5.00 | –
22 | O=C(NO)C1(S(=O)(=O)c2ccc(Oc3ccc(C(F)(F)F)cc3)cc2)CCN(c2ncccc2C(F)(F)F)CC1 [Example 375] | 7.77 | 7.81 | < 5.00 | –
23 | O=C(Nc1ccc(OC(F)(F)F)cc1)C1CCN(c2ccc(S(=O)(=O)C3(C(=O)NO)CCOCC3)cc2)CC1 [Example 73] | 7.81 | 5.70 | < 5.00 | –
24 | O=C(NO)C1(S(=O)(=O)c2ccc([C@H]3CC[C@@H](c4ccccc4)CC3)cc2)CCOCC1 [Example 781] | 6.10 | 5.29 | < 5.00 | –
25 | CC1CC(C)CN(C(=O)C2CCN(c3ccc(S(=O)(=O)C4(C(=O)NO)CCN(C(=O)CN5CCNCC5)CC4)cc3)CC2)C1 (stereo not drawn) [Example 290] | 7.30 | < 5.00 | < 5.00 | –
26 | O=C(NO)C1(S(=O)(=O)c2ccc(N3CCN(S(=O)(=O)c4cccc(C(F)(F)F)c4)CC3)cc2)CCOCC1 [Example 676] | 8.11 | 7.05 | < 5.00 | –
27 | CCN(CC)CC(=O)N1CCC(C(=O)NO)(S(=O)(=O)c2ccc(N3CCC(C(=O)N4CC(C)CC(C)C4)CC3)cc2)CC1 (stereo not drawn) [Example 295] | 7.30 | < 5.00 | < 5.00 | –
28 | CCCN(CC(=O)N1CCC(C(=O)NO)(S(=O)(=O)c2ccc(N3CCC(C(=O)N4CC(C)CC(C)C4)CC3)cc2)CC1)CC1CC1 (stereo not drawn) [Example 292] | 7.00 | < 5.00 | < 5.00 | –
29 | O=C(c1ccccc1)N1CCN(c2ccc(S(=O)(=O)C3(C(=O)NO)CCOCC3)cc2)CC1 [Example 593] | 6.38 | 6.19 | < 5.00 | –
30 | O=C(NO)C1(S(=O)(=O)c2ccc(N3CCC(c4ccccc4O)CC3)cc2)CCOCC1 [Example 825] | 7.95 | – | – | IC50 ([2]; MMP-2 IC50 (nM)): 70 nM; pIC50 [3]: < 5.00
31 | COc1ccc(C(=O)C2CCN(c3ccc(S(=O)(=O)C4(C(=O)NO)CCOCC4)cc3)CC2)cc1 [Example 80] | 8.39 | 6.25 | < 5.00 | –
32 | O=C(NO)C1(S(=O)(=O)c2ccc(N3CC4CC3CO4)cc2)CCOCC1 (stereo not drawn) [Example 492] | 5.21 | < 5.00 | < 5.00 | –
33 | Cc1cccc(C(=O)C2CCN(c3ccc(S(=O)(=O)C4(C(=O)NO)CCOCC4)cc3)CC2)c1 [Example 653] | 9.10 | 6.80 | < 5.00 | –
34 | O=C(NO)C1(S(=O)(=O)c2ccc(N3CCC(c4cccc5ccccc45)CC3)cc2)CCOCC1 [Example 540] | – | 6.30 | < 5.00 | IC50 [1, 4]: 11.4 nM
35 | O=C(c1ccc(F)cc1)C1CCN(c2ccc(S(=O)(=O)C3(C(=O)NO)CCSCC3)cc2)CC1 [Example 152] | – | – | – | pIC50 [1]: 8.70; pIC50 [2]: 7.23; pIC50 [3]: < 5.00
36 | CC1CC(C)CN(C(=O)C2CCN(c3ccc(S(=O)(=O)C4(C(=O)NO)CCN(C(=O)CN5CCN(CCN6CCOCC6)CC5)CC4)cc3)CC2)C1 (stereo not drawn) [Example 306] | 7.22 | < 5.00 | < 5.00 | –
37 | COc1ccc(C2CCN(c3ccc(S(=O)(=O)C4(C(=O)NO)CCOCC4)cc3)CC2)c(OC)c1 [Example 833] | 7.96 | 5.76 | < 5.00 | –
38 | O=C(c1ccc(C(F)(F)F)cc1)C1CCN(c2ccc(S(=O)(=O)C3(C(=O)NO)CCOCC3)cc2)CC1 [Example 729] | 7.83 | 6.62 | < 5.00 | –
39 | Cc1ccc(N2CCN(c3ccc(S(=O)(=O)C4(C(=O)NO)CCOCC4)cc3)CC2)cc1 [Example 535] | – | 7.46 | < 5.00 | IC50 [1]: 1.9 nM
40 | Cc1ccc(C(=O)C2CCN(c3ccc(S(=O)(=O)C4(C(=O)NO)CCOCC4)cc3)CC2)cc1C [Example 737] | 8.52 | 5.89 | < 5.00 | –
